Laboratory results: patent publication US4788217A, “Pesticidal carbamates” (priority 1984, dated 1988)
Like-named read-outs stand apart in the source and are kept apart here.

Legend:
[1] = test system: bean beetle (Acanthoscalides obtectus); test: Pesticidal effect on bean beetle, treated filter paper discs (Example 15, Table I); format: in vivo; details: 24 hours, killed and paralysed
Protocol: From the compounds of the present invention a series of dilution is prepared in acetone; concentration 1, 0.2, 0.04, 0.008 and 0.0016%, respectively. The solutions thus obtained (0.5 ml) are poured dropwise onto Whatman No. 1. filter paper discs (diameter 90 mm) placed in Petri-dishes. After the solvent has evaporated 1-2 weeks' old bean beetle (Acanthoscalides obtectus) images are placed into the Petri-dishes. 3 replicates (10-15 insects each) are used for each concentration. The pesticidal effect of the test compounds is evaluated after 24 hours, on the basis of the percental ratio of the killed and paralysed individuals.

[2] = test system: house fly (Musca domestica); test: Insecticidal activity on house fly, treated filter paper discs (Example 16, Table II); format: in vivo; set-up: mortality: concentration or dose not given beside the values
Protocol: From the test compounds a series of dilution disclosed in Example 15 is prepared whereupon 3-5 days' old house fly (Musca domestica) images being under slight carbon dioxide narcosis are placed onto the infected treated filter paper discs. Three replicates ([…] each) are used for each concentration. The insecticidal activity of the test compounds and that of the referent compounds is evaluated after 24 hours on the basis of the percental ratio of the killed and paralyzed flies. In the solvent control grop there was no mortality.

[3] = test system: small American flour-beetle (Tribolium confusum) larvae; test: Insecticidal effect on flour-beetle larvae, application onto dorsal cuticulum (Example 17, Table III); details: topical, 96 h
Protocol: From the 2,3-dihydro-2,2-dimethyl-7-benzofuranyl-N-methyl-N-(N'-morpholinomethyl)-carbamate, dioxacarb and carbofuran series of dilutions are prepared in acetone: the active ingredient content of the solutions amounts to 40.5, 13.5, 4.5, 1.5, 0.5, 0.16 and 0.05 […] per […], respectively. The solutions (0.5 μl) are applied with the aid of a Hamilton syringe onto the dorsal cuticulum of small American flour-beetle (Tribolium confusum) of L6 larva stage. The age of the larvae is determined on the basis of the average larva weight (=1.81±0.37 mg/larva) See Sokoloff 1972.
Two replicates are used for each concentration (10 individuals per replicate). The insecticidal effect of the test compounds is evaluated after 96 hours on the basis of the percental ratio of killed larvae.

[4] = in vivo; set-up: species or system rats; details: rat, po
From the text: The acute toxicity data (p.o.) of the test compounds are disclosed in Table IV.

[5] = test system: house fly (Musca domestica); test: whole plant or invertebrate; format: in vivo
Protocol: From the compound according to Example 1 a series of dilution is prepared in acetone; concentration: 0.6, 0.2, 0.067 and 0.022% by weight, respectively. From these solutions 0.5 ml each is poured dropwise onto Whatman No. 1 filter paper discs (diameter 90 mm) placed in Petri-dishes. The discs were previously treated with 0.5 ml of a 0.04% piperonyl butoxide solution. After the evaporation of the acetone 3-5 days' old house fly (Musca domestica) imagos being under slight carbon dioxide narcosis are placed onto the filter paper discs. The test is evaluated as described in Example 16.

[6] = test system: rats; details: p.o.; cited from earlier work
[7] = concentration of active ingredient 0.0016%
[8] = concentration of active ingredient 0.008%
[9] = concentration of active ingredient 0.04%
[10] = concentration of active ingredient 0.2%
[11] = concentration of active ingredient 1%
[12] = female rats, p.o., read-out: acute toxicity (p.o.) on female rats
[13] = male rats, p.o., read-out: acute toxicity (p.o.) on male rats

Structure (SMILES) | mortality % [1, 7] | mortality % [1, 8] | mortality % [1, 9] | mortality % [1, 10] | mortality % [1, 11] | mortality at 0.03 µg/larva [3] | mortality at 0.16 µg/larva [3] | mortality at 0.5 µg/larva [3] | mortality at 1.5 µg/larva [3] | mortality at 4.5 µg/larva [3] | mortality at 13 µg/larva [3] | mortality at 40.5 µg/larva [3] | mortality at 0.0016 % ([2]; 24 h) | mortality at 0.04 % ([2]; 24 h) | mortality at 0.08 % ([2]; 24 h) | mortality at 0.2 % ([2]; 24 h) | mortality at 1 % ([2]; 24 h) | LD50 [4, 12] | LD50 [4, 13] | further results
CNC(=O)Oc1cccc2c1OC(C)(C)C2 [Carbofuran, 2,3-dihydro-2,2-dimethyl-benzofurane-7-yl-methyl-carbamate, reference compound] | 0% | 93% | 100% | 100% | 100% | 30% | 70% | 100% | 100% | 100% | 100% | 100% | – | – | – | – | – | – | – | mortality ([2]; 24 hours, killed and paralyzed): 53%; mortality at 0.0016 % ([2]; concentration of active ingredient 0.0016%, 24 hours, killed and paralyzed, read-out: mortality %): 43%; mortality at 0.04 % ([2]; concentration of active ingredient 0.04%, 24 hours, killed and paralyzed, read-out: mortality %): 67%; mortality at 0.2 % ([2]; concentration of active ingredient 0.2%, 24 hours, killed and paralyzed, read-out: mortality %): 100%; mortality at 1 % ([2]; concentration of active ingredient 1%, 24 hours, killed and paralyzed, read-out: mortality %): 100%; LD50 ([4]; acute toxicity (p.o.) on male rats): 8 to 14 mg/kg; mortality at 0.022 % ([5]; concentration of active ingredient 0.022%, evaluated as Example 16 (24 hours), read-out: mortality %): 71%; mortality at 0.067 % ([5]; concentration of active ingredient 0.067%, evaluated as Example 16 (24 hours), read-out: mortality %): 100%; mortality at 0.2 % ([5]; concentration of active ingredient 0.2%, evaluated as Example 16 (24 hours), read-out: mortality %): 100%; mortality at 0.6 % ([5]; concentration of active ingredient 0.6%, evaluated as Example 16 (24 hours), read-out: mortality %): 100%; acute toxicity LD50 [6]: 8 to 10 mg/kg
CNC(=O)Oc1ccccc1C1OCCO1 [Dioxacarb, reference compound] | 0% | 30% | 43% | 93% | 100% | 25% | 40% | 45% | 50% | 50% | 55% | 80% | 0% | 17% | 10% | 90% | 100% | – | – | –
CN(CN1CCOCC1)C(=O)Oc1cccc2c1OC(C)(C)C2 [Example 1, 2,3-dihydro-2,2-dimethyl-7-benzofuranyl-N-methyl-N-(N'-morpholinyl-methyl)-carbamate] | 0% | 50% | 87% | 97% | 100% | 75% | 80% | 90% | 90% | 95% | 100% | 100% | 30% | 43% | 40% | 80% | 100% | 50 mg/kg | 50 mg/kg | mortality at 0.022 % ([5]; 24 h): 32%; mortality at 0.067 % ([5]; 24 h): 78%; mortality at 0.2 % ([5]; 24 h): 100%; mortality at 0.6 % ([5]; 24 h): 100%
CC(C)NCN(C)C(=O)Oc1cccc2c1OC(C)(C)C2 [Example 2, 2,3-dihydro-2,2-dimethyl-7-benzofuranyl-N-methyl-N-/isopropyl-amino-methyl/-carbamate] | 0% | 40% | 60% | 100% | 100% | – | – | – | – | – | – | – | 0% | 30% | 10% | 67% | 90% | – | – | –
CCOC(=O)CCN(CN(C)C(=O)Oc1cccc2c1OC(C)(C)C2)C(C)C [Example 3, 2,3-dihydro-2,2-dimethyl-7-benzofuranyl-N-methyl-N-[(N'-isopropyl)-N'-(β-carbethoxy-ethyl)-amino-methyl]-carbamate] | 0% | 27% | 53% | 80% | 97% | – | – | – | – | – | – | – | 0% | 40% | 33% | 70% | 97% | 31.8 mg/kg | 23.3 mg/kg | –
COc1ccc(CCNCN(C)C(=O)Oc2cccc3c2OC(C)(C)C3)cc1OC [Example 4, 2,3-dihydro-2,2-dimethyl-7-benzofuranyl-N-methyl-N-[3,4-(dimethoxy)-phenylethyl]-amino-methyl-carbamate] | 0% | 37% | 70% | 87% | 100% | – | – | – | – | – | – | – | 0% | 37% | 20% | 83% | 100% | – | – | –
